Test results as given in ChEMBL document CHEMBL1201862, “PubChem BioAssay data set” (2004).
The source made the active and inactive calls.

Key:
[1] = target: 72 kDa type IV collagenase (Homo sapiens, UniProt P08253); assay: Dose Response validation of uHTS RPN11 inhibitor hits using a MMP-2 Fluorescence assay.; assay type: functional
[2] = target: T1, Ubiquitin-conjugating enzyme E2 N (Homo sapiens, UniProt P61088); assay type: functional;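 further: Dose-response confirmation in a TR-FRET assay detecting UBC13-driven polyubiquitin chain formation, inhibition measured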
T1 sequence (P61088 whole entry): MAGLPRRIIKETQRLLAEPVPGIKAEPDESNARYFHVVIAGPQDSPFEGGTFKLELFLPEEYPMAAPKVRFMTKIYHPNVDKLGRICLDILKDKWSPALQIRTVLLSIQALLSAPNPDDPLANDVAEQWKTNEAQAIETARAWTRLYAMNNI

Caspase-6 = target: T2, Caspase-6 (Homo sapiens, UniProt P55212); assay: human caspase-6 inhibitors, dose response, biochemical, VEID-R110 fluorescence, cherry-pick (AID 720632)
T2 sequence (P55212 whole entry): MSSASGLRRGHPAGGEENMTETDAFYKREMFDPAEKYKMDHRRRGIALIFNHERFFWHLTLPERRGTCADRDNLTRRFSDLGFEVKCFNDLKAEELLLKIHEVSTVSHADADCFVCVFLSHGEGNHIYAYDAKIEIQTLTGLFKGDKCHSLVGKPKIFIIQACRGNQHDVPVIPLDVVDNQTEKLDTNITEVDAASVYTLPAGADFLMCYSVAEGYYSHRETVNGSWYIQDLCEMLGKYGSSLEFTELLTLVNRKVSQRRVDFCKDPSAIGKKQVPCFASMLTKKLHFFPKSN

[3] = C. albicans growth with fluconazole, confirmation, fluorescence, retest (AID 2467); assay type: functional, cell-based
[4] = target: T3, Short transient receptor potential channel 4 (Mus musculus, UniProt Q9QUQ5); assay: mouse TRPC4 channel activators, dose response, cell-based, HEK293 TRPC4/mu-opioid, Fluo-4 calcium (AID 434937); assay type: functional
T3 sequence (Q9QUQ5 whole entry): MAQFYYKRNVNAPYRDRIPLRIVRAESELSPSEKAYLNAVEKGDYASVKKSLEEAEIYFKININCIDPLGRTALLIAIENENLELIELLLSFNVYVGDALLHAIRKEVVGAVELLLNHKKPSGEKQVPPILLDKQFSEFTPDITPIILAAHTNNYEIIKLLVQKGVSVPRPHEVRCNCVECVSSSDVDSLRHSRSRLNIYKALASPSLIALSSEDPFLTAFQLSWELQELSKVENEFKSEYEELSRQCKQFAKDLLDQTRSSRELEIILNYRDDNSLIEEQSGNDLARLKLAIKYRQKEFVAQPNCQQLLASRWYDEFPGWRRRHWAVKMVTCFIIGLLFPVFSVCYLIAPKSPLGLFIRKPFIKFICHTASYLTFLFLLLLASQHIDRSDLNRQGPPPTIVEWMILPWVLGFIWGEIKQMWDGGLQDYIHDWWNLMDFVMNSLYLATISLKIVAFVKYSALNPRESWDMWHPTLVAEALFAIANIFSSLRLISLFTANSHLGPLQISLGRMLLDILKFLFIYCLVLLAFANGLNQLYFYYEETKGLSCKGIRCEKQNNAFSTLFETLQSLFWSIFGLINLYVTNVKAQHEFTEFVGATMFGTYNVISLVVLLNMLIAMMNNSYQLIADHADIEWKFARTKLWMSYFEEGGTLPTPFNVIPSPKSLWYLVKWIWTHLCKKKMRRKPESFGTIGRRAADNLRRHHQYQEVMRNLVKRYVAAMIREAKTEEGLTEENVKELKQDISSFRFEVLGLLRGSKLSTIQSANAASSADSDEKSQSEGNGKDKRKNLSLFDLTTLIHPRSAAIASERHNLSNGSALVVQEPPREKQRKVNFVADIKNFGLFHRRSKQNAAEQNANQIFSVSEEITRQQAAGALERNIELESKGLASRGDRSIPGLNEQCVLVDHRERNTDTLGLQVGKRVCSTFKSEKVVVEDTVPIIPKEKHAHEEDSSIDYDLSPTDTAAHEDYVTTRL

[5] = target: T4, Apoptotic protease-activating factor 1 (Homo sapiens, UniProt O14727); assay type: functional
T4 sequence (O14727 whole entry): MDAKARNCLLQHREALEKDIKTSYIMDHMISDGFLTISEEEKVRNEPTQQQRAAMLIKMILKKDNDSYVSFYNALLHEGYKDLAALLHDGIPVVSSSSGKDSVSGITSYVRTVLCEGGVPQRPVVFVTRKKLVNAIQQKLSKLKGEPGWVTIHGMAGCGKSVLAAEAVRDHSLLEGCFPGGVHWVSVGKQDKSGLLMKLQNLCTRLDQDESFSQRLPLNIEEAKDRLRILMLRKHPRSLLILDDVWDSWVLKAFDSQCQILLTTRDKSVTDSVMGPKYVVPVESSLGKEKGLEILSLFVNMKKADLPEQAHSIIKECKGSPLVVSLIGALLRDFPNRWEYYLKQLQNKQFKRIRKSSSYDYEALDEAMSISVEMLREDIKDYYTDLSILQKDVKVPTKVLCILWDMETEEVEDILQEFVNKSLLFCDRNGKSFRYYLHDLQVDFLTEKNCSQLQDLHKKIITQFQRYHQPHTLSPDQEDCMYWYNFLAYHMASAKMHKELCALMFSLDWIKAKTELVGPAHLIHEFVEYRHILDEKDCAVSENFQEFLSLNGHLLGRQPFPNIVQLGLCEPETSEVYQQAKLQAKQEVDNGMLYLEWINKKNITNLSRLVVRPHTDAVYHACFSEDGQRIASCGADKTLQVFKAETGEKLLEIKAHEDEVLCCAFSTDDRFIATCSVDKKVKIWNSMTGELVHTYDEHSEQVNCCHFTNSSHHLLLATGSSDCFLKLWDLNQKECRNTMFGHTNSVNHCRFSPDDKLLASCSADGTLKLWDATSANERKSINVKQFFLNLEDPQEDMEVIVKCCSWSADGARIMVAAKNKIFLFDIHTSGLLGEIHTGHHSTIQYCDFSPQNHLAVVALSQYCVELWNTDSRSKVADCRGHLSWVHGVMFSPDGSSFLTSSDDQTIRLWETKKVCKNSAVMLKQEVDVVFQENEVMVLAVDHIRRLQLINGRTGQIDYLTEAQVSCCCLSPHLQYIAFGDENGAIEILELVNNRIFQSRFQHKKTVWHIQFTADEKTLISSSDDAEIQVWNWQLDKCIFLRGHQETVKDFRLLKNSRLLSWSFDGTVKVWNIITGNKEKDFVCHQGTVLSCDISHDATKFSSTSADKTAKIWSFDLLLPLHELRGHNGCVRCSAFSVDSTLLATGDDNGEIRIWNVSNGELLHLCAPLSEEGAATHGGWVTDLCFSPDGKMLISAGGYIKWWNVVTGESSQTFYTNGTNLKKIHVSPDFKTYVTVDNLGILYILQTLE

72 kDa type IV collagenase, sequence (P08253 whole entry): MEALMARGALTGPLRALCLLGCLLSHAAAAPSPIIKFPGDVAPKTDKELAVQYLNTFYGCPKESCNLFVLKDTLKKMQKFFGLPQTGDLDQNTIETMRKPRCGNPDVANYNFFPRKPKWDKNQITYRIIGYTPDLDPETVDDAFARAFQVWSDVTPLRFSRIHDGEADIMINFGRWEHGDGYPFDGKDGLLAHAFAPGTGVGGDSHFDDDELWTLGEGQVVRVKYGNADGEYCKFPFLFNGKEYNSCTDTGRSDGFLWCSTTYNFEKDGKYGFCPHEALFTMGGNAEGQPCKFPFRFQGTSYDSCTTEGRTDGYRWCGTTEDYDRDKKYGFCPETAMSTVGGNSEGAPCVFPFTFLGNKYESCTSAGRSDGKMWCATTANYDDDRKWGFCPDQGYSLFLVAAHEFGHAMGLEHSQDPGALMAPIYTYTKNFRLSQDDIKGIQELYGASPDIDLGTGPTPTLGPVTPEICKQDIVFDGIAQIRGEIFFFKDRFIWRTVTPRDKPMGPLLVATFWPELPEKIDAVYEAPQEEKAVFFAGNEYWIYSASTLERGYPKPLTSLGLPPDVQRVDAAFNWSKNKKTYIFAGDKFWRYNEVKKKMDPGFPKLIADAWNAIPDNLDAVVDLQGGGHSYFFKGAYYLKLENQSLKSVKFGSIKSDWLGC

N=C(N)N/N=C/c1ccc(N(c2ccccc2)c2ccccc2)cc1
active: IC50 [1] 66.3 µM | IC50 [2] 8.24 µM | AC50 (Caspase-6) 10.1 µM | EC50 [3] 5.12 µM | EC50 [4] 9.44 µM | IC50 [5] 28.2 µM
